# Test: recombinant UMI read abundance after kanamycin selection (control-corrected) (log10(CPM+1)); higher = more efficient recombination; extreme values may be limits of the assay; sequences stand for … in AGTGCAGAGAAAATCGGCCAGTTTTCTCTGCCTGCAGTCCGCATGCCGTGGGACCCCTTGGGTTCTAACCTGTTGCCTAGATTTATGCAGCGGACTGCCTTTCTCCCAAAGTGATAAACCGG…AGGTTGGTTTCACT; site = the 11-nt donor
# How it was run: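 In a pooled Escherichia coli screen for the IS621 bridge recombinase, donor and donor-binding-loop pairs were each placed with a 12-nt UMI on a plasmid bearing a promoterless kanamycin gene. This library was co-electroporated with a target plasmid encoding a fixed target and T7-inducible recombinase, and cells were plated either on IPTG (0.07 mM) plus kanamycin or without selection, in two replicates each. Recombinant UMIs were PCR-amplified across the donor–target junction and sequenced, and counts were converted to CPM, averaged over replicates, scaled by control-derived factors and reported as log10(CPM+1).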
row,Sequence,recombinant UMI read abundance (log10)
1,GGTGCGTCATGGACCGGTTTTCCCGGTAATCCGTATTTGGA (site GGTGCGTCTTC),0.59
2,GGTGTTCCATGGACCGGTTTTCCCGGTAATCCGTATTTGGT (site GATGTTCCTAC),0.0226
3,GGTGTTCCATGGACCGGTTTTCCCGGTAATCCGTATTTGGT (site GCTGTTCCTAC),0.0204
4,GGTGTTCCATGGACCGGTTTTCCCGGTAATCCGTATTTGGT (site GGTGTTCCTAC),0.0141
5,GGTGTTCCATGGACCGGTTTTCCCGGTAATCCGTATTTGGT (site GTTGTTCCTAC),0
6,GGTTACCCATGGACCGGTTTTCCCGGTAATCCGTATTTGTC (site GGTTACCCTGA),0.664
7,GGTTCCCCATGGACCGGTTTTCCCGGTAATCCGTATTTGTA (site AGTTCCCCTTA),0.0122
8,GGTTCCCCATGGACCGGTTTTCCCGGTAATCCGTATTTGTA (site CGTTCCCCTTA),0.00861
9,GGTTCCCCATGGACCGGTTTTCCCGGTAATCCGTATTTGTA (site GGTTCCCCTTA),0.0107
10,GGTTCCCCATGGACCGGTTTTCCCGGTAATCCGTATTTGTA (site TGTTCCCCTTA),0.0103
11,GGTTCCGCATGGACCGGTTTTCCCGGTAATCCGTATTTGAA (site GGTTCCGCTTT),0
12,GGTTCTACATGGACCGGTTTTCCCGGTAATCCGTATTTGAG (site GGTTCTACTCT),0.316
13,GGTTGGTCATGGACCGGTTTTCCCGGTAATCCGTATTTGCA (site GGTTGGTCTTG),1.59
14,GGTTTGTCATGGACCGGTTTTCCCGGTAATCCGTATTTGTG (site GGTTTGTCTCA),1.21
15,GTAAAATCATGGACCGGTTTTCCCGGTAATCCGTATTTGCA (site GTAAAATCTTG),1.81
16,GTAAAGACATGGACCGGTTTTCCCGGTAATCCGTATTTGGG (site GTAAAGACTCC),0.889
17,GTAACGCCATGGACCGGTTTTCCCGGTAATCCGTATTTGTC (site GTAACGCCTGA),0
18,GTAAGTTCATGGACCGGTTTTCCCGGTAATCCGTATTTGTC (site GTAAGTTCTGA),2.1
19,GTACAAGCATGGACCGGTTTTCCCGGTAATCCGTATTTGCA (site GTACAAGCTTG),2.69
20,GTACCCACATGGACCGGTTTTCCCGGTAATCCGTATTTGTC (site GTACCCACTGA),2.64
21,GTACCTTCATGGACCGGTTTTCCCGGTAATCCGTATTTGAC (site GTACCTTCTGT),2.06
22,GTACGCACATGGACCGGTTTTCCCGGTAATCCGTATTTGTA (site GTAAGCACTTA),0.0204
23,GTACGCACATGGACCGGTTTTCCCGGTAATCCGTATTTGTA (site GTACGCACTTA),2.17
24,GTACGCACATGGACCGGTTTTCCCGGTAATCCGTATTTGTA (site GTAGGCACTTA),0.0167
25,GTACGCACATGGACCGGTTTTCCCGGTAATCCGTATTTGTA (site GTATGCACTTA),0.266

row,Sequence,recombinant UMI read abundance (log10)
1,GTACTTCCATGGACCGGTTTTCCCGGTAATCCGTATTTGCT (site GTACTTCCTAG),1.14
2,GTAGCCGCATGGACCGGTTTTCCCGGTAATCCGTATTTGCG (site GTAGACGCTCG),0.446
3,GTAGCCGCATGGACCGGTTTTCCCGGTAATCCGTATTTGCG (site GTAGCCGCTCG),2.08
4,GTAGCCGCATGGACCGGTTTTCCCGGTAATCCGTATTTGCG (site GTAGGCGCTCG),0.0284
5,GTAGCCGCATGGACCGGTTTTCCCGGTAATCCGTATTTGCG (site GTAGTCGCTCG),0.781
6,GTAGCCTCATGGACCGGTTTTCCCGGTAATCCGTATTTGTT (site GTAGCCTCTAA),2.42
7,GTAGCGACATGGACCGGTTTTCCCGGTAATCCGTATTTGTC (site GTAGCGACTGA),2.92
8,GTAGCTACATGGACCGGTTTTCCCGGTAATCCGTATTTGAC (site GTAGATACTGT),1.02
9,GTAGCTACATGGACCGGTTTTCCCGGTAATCCGTATTTGAC (site GTAGCTACTGT),2.4
10,GTAGCTACATGGACCGGTTTTCCCGGTAATCCGTATTTGAC (site GTAGGTACTGT),0
11,GTAGCTACATGGACCGGTTTTCCCGGTAATCCGTATTTGAC (site GTAGTTACTGT),1.7
12,GTAGGCACATGGACCGGTTTTCCCGGTAATCCGTATTTGTA (site GTAAGCACTTA),1.08
13,GTAGGCACATGGACCGGTTTTCCCGGTAATCCGTATTTGTA (site GTACGCACTTA),0.279
14,GTAGGCACATGGACCGGTTTTCCCGGTAATCCGTATTTGTA (site GTAGGCACTTA),1.29
15,GTAGGCACATGGACCGGTTTTCCCGGTAATCCGTATTTGTA (site GTATGCACTTA),0.019
16,GTAGGCTCATGGACCGGTTTTCCCGGTAATCCGTATTTGCA (site GTAGGCTCTTG),2.94
17,GTAGGTACATGGACCGGTTTTCCCGGTAATCCGTATTTGAA (site GTAGGTACTAT),0
18,GTAGGTACATGGACCGGTTTTCCCGGTAATCCGTATTTGAA (site GTAGGTACTCT),0.518
19,GTAGGTACATGGACCGGTTTTCCCGGTAATCCGTATTTGAA (site GTAGGTACTGT),0.479
20,GTAGGTACATGGACCGGTTTTCCCGGTAATCCGTATTTGAA (site GTAGGTACTTT),1.75
21,GTAGGTACATGGACCGGTTTTCCCGGTAATCCGTATTTGCC (site GTAGGTACTGA),0.73
22,GTAGGTACATGGACCGGTTTTCCCGGTAATCCGTATTTGCC (site GTAGGTACTGC),0.00606
23,GTAGGTACATGGACCGGTTTTCCCGGTAATCCGTATTTGCC (site GTAGGTACTGG),0.956
24,GTAGGTACATGGACCGGTTTTCCCGGTAATCCGTATTTGCC (site GTAGGTACTGT),0.441
25,GTAGGTGCATGGACCGGTTTTCCCGGTAATCCGTATTTGAC (site GTAGGTACTGT),2.25

row,Sequence,recombinant UMI read abundance (log10)
1,GTAGGTGCATGGACCGGTTTTCCCGGTAATCCGTATTTGAC (site GTAGGTCCTGT),0.618
2,GTAGGTGCATGGACCGGTTTTCCCGGTAATCCGTATTTGAC (site GTAGGTGCTGT),2.74
3,GTAGGTGCATGGACCGGTTTTCCCGGTAATCCGTATTTGAC (site GTAGGTTCTGT),1.1
4,GTAGTCGCATGGACCGGTTTTCCCGGTAATCCGTATTTGAG (site GTAGTCGCTCA),0.017
5,GTAGTCGCATGGACCGGTTTTCCCGGTAATCCGTATTTGAG (site GTAGTCGCTCC),0.924
6,GTAGTCGCATGGACCGGTTTTCCCGGTAATCCGTATTTGAG (site GTAGTCGCTCG),0.73
7,GTAGTCGCATGGACCGGTTTTCCCGGTAATCCGTATTTGAG (site GTAGTCGCTCT),1.5
8,GTAGTCGCATGGACCGGTTTTCCCGGTAATCCGTATTTGCA (site GTAGTCGCTAG),0.762
9,GTAGTCGCATGGACCGGTTTTCCCGGTAATCCGTATTTGCA (site GTAGTCGCTCG),1.85
10,GTAGTCGCATGGACCGGTTTTCCCGGTAATCCGTATTTGCA (site GTAGTCGCTGG),0.873
11,GTAGTCGCATGGACCGGTTTTCCCGGTAATCCGTATTTGCA (site GTAGTCGCTTG),2.68
12,GTAGTCGCATGGACCGGTTTTCCCGGTAATCCGTATTTGCC (site GTAGTCGCTAG),1.64
13,GTAGTCGCATGGACCGGTTTTCCCGGTAATCCGTATTTGCC (site GTAGTCGCTCG),0.819
14,GTAGTCGCATGGACCGGTTTTCCCGGTAATCCGTATTTGCC (site GTAGTCGCTGG),2.93
15,GTAGTCGCATGGACCGGTTTTCCCGGTAATCCGTATTTGCC (site GTAGTCGCTTG),2.39
16,GTAGTCGCATGGACCGGTTTTCCCGGTAATCCGTATTTGTG (site GTAGTCGCTCA),2.18
17,GTAGTCGCATGGACCGGTTTTCCCGGTAATCCGTATTTGTG (site GTAGTCGCTCC),0.438
18,GTAGTCGCATGGACCGGTTTTCCCGGTAATCCGTATTTGTG (site GTAGTCGCTCG),1.42
19,GTAGTCGCATGGACCGGTTTTCCCGGTAATCCGTATTTGTG (site GTAGTCGCTCT),1.05
20,GTAGTCTCATGGACCGGTTTTCCCGGTAATCCGTATTTGCG (site GTAGTCACTCG),1.31
21,GTAGTCTCATGGACCGGTTTTCCCGGTAATCCGTATTTGCG (site GTAGTCCCTCG),1.12
22,GTAGTCTCATGGACCGGTTTTCCCGGTAATCCGTATTTGCG (site GTAGTCGCTCG),0.176
23,GTAGTCTCATGGACCGGTTTTCCCGGTAATCCGTATTTGCG (site GTAGTCTCTCG),3
24,GTAGTTGCATGGACCGGTTTTCCCGGTAATCCGTATTTGCG (site GTAGTAGCTCG),2.05
25,GTAGTTGCATGGACCGGTTTTCCCGGTAATCCGTATTTGCG (site GTAGTCGCTCG),1.78

# From the supplement of paper PMC11208160
